For data set [1], the system named is Hep3B. Briefly: Cytotoxicity assay (cell titer-glo and calcein AM), Hep3B. The following applies: Hep 3B, % error in parentheses.
In data set [2] the test system is MCF7. Briefly: Cytotoxicity assay (cell titer-glo and calcein AM), MCF7.
The subject of data set [3] is SK-OV-3. Kind of data set: Cytotoxicity assay (cell titer-glo and calcein AM), SK-OV-3. The settings on record: SK-OV-3, % error in parentheses.
The test system of data set [4] is ADR-RES. Briefly: Cytotoxicity assay (cell titer-glo and calcein AM), ADR-RES. The following applies: NCI/ADR RES, % error in parentheses.
For data set [5], the system named is NCI-H460. Kind of data set: Cytotoxicity assay (cell titer-glo and calcein AM), NCI-H460. The settings on record: NCI-H460, % error in parentheses.
Data set [6] concerns HCT-116.
Data set [7] has as its system SF-268. Briefly: Cytotoxicity assay (cell titer-glo and calcein AM), SF-268. The settings on record: SF-268, % error in parentheses.
The test system of data set [8] is A549. Briefly: Cytotoxicity assay (cell titer-glo and calcein AM), A549. The settings on record: A549, % error in parentheses.
Data set [9] relates to mouse mammary normal epithelial control cell line. Briefly: Cytotoxicity assay, normal control cell line.
The test system of data set [10] is Du145. Kind of data set: Cytotoxicity assay (cell titer-glo and calcein AM), Du145. The following applies: Du145, % error in parentheses.
Data set [11] can be described thus: Precipitation in assay media. The data set is classed as physicochemical. The settings on record: cell culture media / assay.
The mark [12] stands for this setting: read-out: Cytotoxicity IC50, Hep 3B, CTG, CTG (cell titer-glo) readout.
[13] abbreviates: read-out: Cytotoxicity IC50, Hep 3B, calcein, calcein AM readout.
Where [14] appears, read: read-out: Cytotoxicity IC50, MCF7, CTG, CTG (cell titer-glo) readout, % error in parentheses.
The mark [15] stands for this setting: read-out: Cytotoxicity IC50, MCF7, calcein, calcein AM readout, % error in parentheses.
Setting [16] is: read-out: Cytotoxicity IC50, SK-OV-3, CTG, CTG (cell titer-glo) readout.
[17] abbreviates: read-out: Cytotoxicity IC50, SK-OV-3, calcein, calcein AM readout.
Where [18] appears, read: read-out: Cytotoxicity IC50, NCI/ADR RES, CTG, CTG (cell titer-glo) readout.
Where [19] appears, read: read-out: Cytotoxicity IC50, NCI/ADR RES, calcein, calcein AM readout.
The mark [20] stands for this setting: read-out: Cytotoxicity IC50, NCI-H460, CTG, CTG (cell titer-glo) readout.
Setting [21] is: read-out: Cytotoxicity IC50, NCI-H460, calcein, calcein AM readout.
The mark [22] stands for this setting: read-out: Cytotoxicity IC50, SF-268, CTG, CTG (cell titer-glo) readout.
The mark [23] stands for this setting: read-out: Cytotoxicity IC50, SF-268, calcein, calcein AM readout.
Where [24] appears, read: read-out: Cytotoxicity IC50, A549, CTG, CTG (cell titer-glo) readout.
Where [25] appears, read: read-out: Cytotoxicity IC50, A549, calcein, calcein AM readout.
The mark [26] stands for this setting: read-out: Cytotoxicity IC50, NmuMG, CTG, CTG (cell titer-glo) readout, % error in parentheses.
[27] abbreviates: read-out: Cytotoxicity IC50, NmuMG, calcein, calcein AM readout, % error in parentheses.
The mark [28] stands for this setting: read-out: Cytotoxicity IC50, Du145, CTG, CTG (cell titer-glo) readout.
[29] abbreviates: read-out: Cytotoxicity IC50, Du145, calcein, calcein AM readout.

SMILES strings stand for the structures. Entries after “also recorded” stand apart in the source; their conditions may differ. Where two headings read alike, the source gives them in different places.

For `COc1cc2c(c(OC)c1OC)-c1ccc(OC)c(=O)cc1[C@@H](NC(=O)CN(OC)[C@@H]1O[C@H](CO)[C@@H](O[C@H]3O[C@H](CO)[C@@H](O[C@H]4O[C@H](CO)[C@@H](O)[C@H](O)[C@H]4O)[C@H](O)[C@H]3O)[C@H](O)[C@H]1O)CC2` [Col13, maltotrioside], the IC50 in data set [1] (setting [12]) is > 10000 nM; in data set [1] (setting [13]), > 10000 nM; in data set [2] (setting [14]), 9860 nM; in data set [2] (setting [15]), > 10000 nM; in data set [3] (setting [16]), > 10000 nM; in data set [3] (setting [17]), > 10000 nM. Besides, the IC50 in data set [4] (setting [18]) was > 10000 nM; in data set [4] (setting [19]), > 10000 nM; in [5] (setting [20]) it was > 10000 nM; in [5] (setting [21]) it was 2580 nM; in data set [6], > 10000 nM; in data set [7] (setting [22]), > 10000 nM. In addition, the IC50 in [7] (setting [23]), in data set [8] (setting [24]), in [8] (setting [25]), in [9] (setting [26]), in data set [9] (setting [27]) and in [10] (setting [28]) was > 10000 nM throughout. Besides, the IC50 in data set [10] (setting [29]) is > 10000 nM.
Take `COc1cc2c(c(OC)c1OC)-c1ccc(OC)c(=O)cc1C(NC(=O)CN(OC)C1OC(COCc3ccccc3)C(OCc3ccccc3)C1OCc1ccccc1)CC2` (centres unmarked) [Col53]: the IC50 is 47 nM in data set [1] (setting [12]); 69 nM in data set [1] (setting [13]); 49 nM in data set [2] (setting [14]); 39 nM in data set [2] (setting [15]); 42 nM in data set [3] (setting [16]); 36 nM in data set [3] (setting [17]). For the same compound, the IC50 was 46 nM in data set [4] (setting [18]); 37 nM in data set [4] (setting [19]); 41 nM in data set [5] (setting [20]); 71 nM in data set [5] (setting [21]); 37 nM in data set [7] (setting [22]); 18 nM in [7] (setting [23]). Further, the IC50 was 48 nM in data set [8] (setting [24]); 62 nM in data set [8] (setting [25]); 120 nM in data set [9] (setting [26]); 392 nM in [9] (setting [27]); 41 nM in [10] (setting [28]); 32 nM in [10] (setting [29]). In [11], the precipitation entry is “precipitation in cell culture media; also recorded: precipitated”.

The record behind these values is patent US20130012466A1 (priority 2006, published 2013).
